Results reported in US20080124753A1, “SpiceMatrix Technology for Taste Compound Identification” (priority 2006, published 2008).
Entries after “also recorded” stand apart in the source; their conditions may differ.

Legend:
[1] = molecular target: T1, TRPA1 (Homo sapiens, UniProt O75762); experiment: FMP membrane potential fluorescence assay, TRPA1 transfected HEK 293 cells; assay type: cell-based; details: for relative stimulation of TRPA1 (SpiceMatrix reactivity): FIG. 2A, relative to untransfected HEK-293 cells (Parentals), among 68 compounds
From the text: (§1) As described in greater detail below, HEK 293 cells, transiently transfected with plasmid bearing the genes encoding the various ion channels, were used to develop SpiceMatrix fingerprint assay. Indirect measurement of the changes in ion concentrations within the HEK 293 cells were made using a FMP dye and stimulation of the cells using calcium activating agents. Described below are the conditions for screening using TRPM5. Screening conditions for other TRP ion channels were similar to those described unless otherwise indicated.
1.0×10^6 HEK 293 cells (ATCC) were plated in each well of a 6-well tissue culture dish overnight. The following day, cells were transfected with 4 μg of a pcDNA3.2 vector containing TRPM5 cDNA and 8 μl of Lipofectamine 2000 (Invitrogen), according to the manufacturer's protocol, and incubated overnight. The following day, transfected cells were trypsinized and seeded into 96-well black, clear bottom, poly-D-lysine plates (Corning) at a density of 70,000 cells/well in a 100 μl volume and incubated in a 37° C./5% CO2 incubator overnight.
(§2) Once the expression of TRPM5 was confirmed in the HEK cells, 100 μl of the Blue or Red FMP dye (Molecular Devices) was added to each well of plates seeded with the transiently transfected cells. The plate was then incubated in a 37° C./5% CO2 incubator for 1 hour. The plate was read in a FLEXStation microplate reader (Molecular Devices) with an excitation of 530 nm and an emission of 565 nm. The fluorescence was monitored for 3 minutes upon exposure of the cells to a calcium activating agent (carbachol, thrombin peptide or ATP).
For screening of taste compounds, sample dilution sets (four 384 sample plates) were tested in 5, dye-loaded, cell lines to yield 20 assay plates for data collection. One cell plate, a sample plate, and an agonist sample source plate were placed in the FLIPR. To identify samples with agonist activity, 10 μl of samples or standards were added to the cell plate, and sample agonist response fluorescent readings taken for 3 minutes. To identify samples with antagonist activity, agonist, e.g. 100 μM cinnamaldehyde for TRPA1, was added to all wells and agonist response fluorescent readings were taken for 2 minutes. Sample that block this response were nominally antagonists.

[2] = molecular target: T1, TRPA1; details: literature reports; cited from earlier work
[3] = molecular target: T2, TRPM5 (Homo sapiens, UniProt Q9NZQ8); experiment: FMP membrane potential fluorescence assay, TRPM5 transfected HEK 293 cells; assay type: cell-based
T2 construct: The full length TRPM5 was excised from the TOPO TA vector; expressed in transfected cells; host or cells: HEK 293 (ATCC)
T2 sequence (Q9NZQ8 1-1165): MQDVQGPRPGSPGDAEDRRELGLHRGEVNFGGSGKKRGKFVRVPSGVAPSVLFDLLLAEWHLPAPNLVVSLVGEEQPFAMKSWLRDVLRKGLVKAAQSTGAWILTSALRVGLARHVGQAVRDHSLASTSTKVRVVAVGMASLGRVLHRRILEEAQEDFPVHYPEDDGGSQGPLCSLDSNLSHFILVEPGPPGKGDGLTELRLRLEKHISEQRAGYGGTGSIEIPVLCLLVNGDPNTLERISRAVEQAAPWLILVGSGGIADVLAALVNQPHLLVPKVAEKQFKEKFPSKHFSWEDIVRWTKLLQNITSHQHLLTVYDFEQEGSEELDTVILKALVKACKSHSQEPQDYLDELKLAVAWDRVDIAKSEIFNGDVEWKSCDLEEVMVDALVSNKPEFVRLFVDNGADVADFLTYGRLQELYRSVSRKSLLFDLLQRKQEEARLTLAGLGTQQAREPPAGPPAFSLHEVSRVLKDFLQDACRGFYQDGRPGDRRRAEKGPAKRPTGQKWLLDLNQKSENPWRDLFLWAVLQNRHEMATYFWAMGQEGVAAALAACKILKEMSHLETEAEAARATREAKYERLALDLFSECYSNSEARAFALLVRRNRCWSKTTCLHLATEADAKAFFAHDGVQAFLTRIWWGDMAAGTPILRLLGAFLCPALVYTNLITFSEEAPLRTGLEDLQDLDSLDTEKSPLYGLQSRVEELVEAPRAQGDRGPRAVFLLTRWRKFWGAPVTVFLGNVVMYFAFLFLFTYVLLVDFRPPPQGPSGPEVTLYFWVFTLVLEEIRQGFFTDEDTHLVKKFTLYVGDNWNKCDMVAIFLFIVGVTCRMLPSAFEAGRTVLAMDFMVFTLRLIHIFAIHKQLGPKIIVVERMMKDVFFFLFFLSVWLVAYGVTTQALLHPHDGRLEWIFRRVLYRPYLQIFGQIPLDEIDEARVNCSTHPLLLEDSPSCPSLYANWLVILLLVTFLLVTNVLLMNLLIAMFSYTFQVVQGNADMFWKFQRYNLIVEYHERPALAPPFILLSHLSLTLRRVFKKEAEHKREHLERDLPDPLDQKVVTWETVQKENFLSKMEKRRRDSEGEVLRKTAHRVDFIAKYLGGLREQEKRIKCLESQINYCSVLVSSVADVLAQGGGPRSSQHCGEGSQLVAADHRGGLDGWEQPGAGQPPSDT
From the text: as §1, with “indicated. […]” for “indicated.”
as §2, with “The plate was then incubated in a 37° C./5% CO2 incubator for 1 hour.” left out
For screening of taste compounds, sample dilution sets (four 384 sample plates) were tested in 5, dye-loaded, cell lines to yield 20 assay plates for data collection. […] To identify samples with agonist activity, 10 μl of samples or standards were added to the cell plate, and sample agonist response fluorescent readings taken for 3 minutes. […]

[4] = molecular target: T3, TRPV1 (Homo sapiens, UniProt Q8NER1); experiment: FMP membrane potential fluorescence assay, TRPV1 transfected HEK 293 cells; assay type: cell-based
From the text: as §1
(§3) 1.0×10^6 HEK 293 cells (ATCC) were plated in each well of a 6-well tissue culture dish overnight. The following day, cells were transfected with 4 μg of a pcDNA3.2 vector containing TRPM5 cDNA and 8 μl of Lipofectamine 2000 (Invitrogen), according to the manufacturer's protocol, and incubated overnight. […]
as §2, with “The plate was then incubated in a 37° C./5% CO2 incubator for 1 hour.” left out, “ATP). […]” for “ATP).”

[5] = molecular target: T3, TRPV1; details: literature report (Calixto et al.); cited from earlier work
[6] = molecular target: T4, TRPM8 (Homo sapiens, UniProt Q7Z2W7); details: literature reports; cited from earlier work
[7] = molecular target: T5, mouse TRPA1 (Mus musculus, UniProt Q8BLA8); details: mouse TRPA1-CHO cells, literature report; cited from earlier work
T5 construct: host or cells: CHO

[8] = molecular target: T4, TRPM8; experiment: FMP membrane potential fluorescence assay, TRPM8 transfected HEK 293 cells; assay type: cell-based; details: FIG. 1D, FLIPR
From the text: as §1, §3
as §2, with “The plate was then incubated in a 37° C./5% CO2 incubator for 1 hour.” left out, “ATP). […]” for “ATP).”

T5 sequence (Q8BLA8 whole entry): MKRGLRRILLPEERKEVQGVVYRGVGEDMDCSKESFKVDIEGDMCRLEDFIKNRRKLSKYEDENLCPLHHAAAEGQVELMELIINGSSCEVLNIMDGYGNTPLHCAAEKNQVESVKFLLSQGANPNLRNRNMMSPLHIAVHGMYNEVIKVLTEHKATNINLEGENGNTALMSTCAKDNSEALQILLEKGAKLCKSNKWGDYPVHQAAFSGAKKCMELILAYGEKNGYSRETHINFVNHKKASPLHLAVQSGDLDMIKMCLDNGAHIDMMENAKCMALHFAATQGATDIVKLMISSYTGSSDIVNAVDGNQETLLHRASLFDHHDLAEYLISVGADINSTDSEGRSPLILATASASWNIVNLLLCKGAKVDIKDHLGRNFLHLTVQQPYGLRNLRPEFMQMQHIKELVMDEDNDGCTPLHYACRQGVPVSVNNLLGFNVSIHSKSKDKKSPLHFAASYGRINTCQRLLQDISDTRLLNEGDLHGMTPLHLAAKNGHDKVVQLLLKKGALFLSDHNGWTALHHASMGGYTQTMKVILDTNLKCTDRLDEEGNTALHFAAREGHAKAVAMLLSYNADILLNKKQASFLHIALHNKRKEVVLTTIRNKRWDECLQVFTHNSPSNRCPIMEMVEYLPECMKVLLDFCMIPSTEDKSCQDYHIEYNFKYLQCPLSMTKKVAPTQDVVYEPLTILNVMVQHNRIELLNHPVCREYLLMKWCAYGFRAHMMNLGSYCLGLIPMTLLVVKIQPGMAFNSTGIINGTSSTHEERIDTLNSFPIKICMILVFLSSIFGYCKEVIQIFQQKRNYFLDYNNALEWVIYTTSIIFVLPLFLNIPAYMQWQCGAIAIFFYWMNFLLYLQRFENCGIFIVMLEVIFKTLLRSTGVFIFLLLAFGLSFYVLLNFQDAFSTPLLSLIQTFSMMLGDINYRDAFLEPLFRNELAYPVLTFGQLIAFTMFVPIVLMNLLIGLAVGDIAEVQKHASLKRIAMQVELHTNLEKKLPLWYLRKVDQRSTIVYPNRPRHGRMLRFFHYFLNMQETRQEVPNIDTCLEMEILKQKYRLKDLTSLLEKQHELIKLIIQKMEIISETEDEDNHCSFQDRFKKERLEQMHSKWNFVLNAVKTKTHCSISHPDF
T1 sequence (O75762 whole entry): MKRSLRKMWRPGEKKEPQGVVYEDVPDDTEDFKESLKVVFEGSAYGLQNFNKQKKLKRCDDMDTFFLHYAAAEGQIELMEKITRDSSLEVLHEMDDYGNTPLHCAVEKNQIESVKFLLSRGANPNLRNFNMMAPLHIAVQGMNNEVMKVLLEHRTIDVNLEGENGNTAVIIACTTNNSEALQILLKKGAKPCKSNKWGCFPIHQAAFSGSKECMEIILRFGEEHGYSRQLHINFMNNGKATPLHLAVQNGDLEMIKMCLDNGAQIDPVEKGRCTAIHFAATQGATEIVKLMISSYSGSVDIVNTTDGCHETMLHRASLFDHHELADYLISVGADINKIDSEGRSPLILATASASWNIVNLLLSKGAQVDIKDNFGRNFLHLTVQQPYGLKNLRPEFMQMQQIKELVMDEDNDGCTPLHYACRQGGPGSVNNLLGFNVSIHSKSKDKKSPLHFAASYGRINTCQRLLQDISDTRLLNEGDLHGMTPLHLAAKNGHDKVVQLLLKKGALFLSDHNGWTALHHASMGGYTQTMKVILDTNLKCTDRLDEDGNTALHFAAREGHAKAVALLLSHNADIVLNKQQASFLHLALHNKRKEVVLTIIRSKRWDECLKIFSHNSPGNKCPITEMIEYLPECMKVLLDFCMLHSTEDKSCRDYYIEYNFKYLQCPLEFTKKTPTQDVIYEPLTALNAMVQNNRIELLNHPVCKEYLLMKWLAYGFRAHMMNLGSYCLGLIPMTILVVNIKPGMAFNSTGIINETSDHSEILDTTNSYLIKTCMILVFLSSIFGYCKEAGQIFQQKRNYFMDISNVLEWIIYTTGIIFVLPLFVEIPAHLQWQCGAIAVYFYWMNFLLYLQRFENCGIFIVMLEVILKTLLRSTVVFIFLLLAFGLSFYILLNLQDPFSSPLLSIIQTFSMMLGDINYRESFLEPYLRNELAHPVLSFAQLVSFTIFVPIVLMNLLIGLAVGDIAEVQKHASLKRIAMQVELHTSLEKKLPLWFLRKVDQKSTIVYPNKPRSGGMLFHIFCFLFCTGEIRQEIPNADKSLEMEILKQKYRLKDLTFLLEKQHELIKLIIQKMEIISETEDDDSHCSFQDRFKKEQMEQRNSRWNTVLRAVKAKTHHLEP
T4 sequence (Q7Z2W7 whole entry): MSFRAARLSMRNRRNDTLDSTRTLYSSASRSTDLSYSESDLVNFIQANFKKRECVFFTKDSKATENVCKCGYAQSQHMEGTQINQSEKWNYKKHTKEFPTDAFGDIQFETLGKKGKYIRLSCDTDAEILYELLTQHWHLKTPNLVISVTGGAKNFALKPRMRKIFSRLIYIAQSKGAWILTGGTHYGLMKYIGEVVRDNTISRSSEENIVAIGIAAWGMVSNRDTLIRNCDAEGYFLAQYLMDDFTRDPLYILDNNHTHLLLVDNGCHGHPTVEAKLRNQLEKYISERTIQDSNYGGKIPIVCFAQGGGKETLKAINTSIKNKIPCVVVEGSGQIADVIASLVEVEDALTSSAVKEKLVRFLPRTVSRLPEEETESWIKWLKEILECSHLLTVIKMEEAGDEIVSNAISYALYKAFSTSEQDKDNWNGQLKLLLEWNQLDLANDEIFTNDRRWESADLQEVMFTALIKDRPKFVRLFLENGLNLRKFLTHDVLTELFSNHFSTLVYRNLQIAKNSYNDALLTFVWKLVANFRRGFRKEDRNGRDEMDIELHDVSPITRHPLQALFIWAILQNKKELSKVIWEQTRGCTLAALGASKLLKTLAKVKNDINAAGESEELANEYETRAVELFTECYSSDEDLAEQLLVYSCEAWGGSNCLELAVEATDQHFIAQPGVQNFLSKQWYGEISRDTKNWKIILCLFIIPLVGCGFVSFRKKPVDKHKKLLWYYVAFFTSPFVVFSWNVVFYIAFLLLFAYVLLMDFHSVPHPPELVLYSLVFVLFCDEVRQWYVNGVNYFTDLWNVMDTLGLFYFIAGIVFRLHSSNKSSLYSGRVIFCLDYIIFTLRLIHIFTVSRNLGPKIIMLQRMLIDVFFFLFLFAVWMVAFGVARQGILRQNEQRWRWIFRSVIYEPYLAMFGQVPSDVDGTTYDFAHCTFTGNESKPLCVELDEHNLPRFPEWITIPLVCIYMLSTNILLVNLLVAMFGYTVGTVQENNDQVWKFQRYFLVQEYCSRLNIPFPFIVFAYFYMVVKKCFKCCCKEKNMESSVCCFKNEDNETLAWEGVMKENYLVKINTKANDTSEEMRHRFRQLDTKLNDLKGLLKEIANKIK
T3 sequence (Q8NER1 whole entry): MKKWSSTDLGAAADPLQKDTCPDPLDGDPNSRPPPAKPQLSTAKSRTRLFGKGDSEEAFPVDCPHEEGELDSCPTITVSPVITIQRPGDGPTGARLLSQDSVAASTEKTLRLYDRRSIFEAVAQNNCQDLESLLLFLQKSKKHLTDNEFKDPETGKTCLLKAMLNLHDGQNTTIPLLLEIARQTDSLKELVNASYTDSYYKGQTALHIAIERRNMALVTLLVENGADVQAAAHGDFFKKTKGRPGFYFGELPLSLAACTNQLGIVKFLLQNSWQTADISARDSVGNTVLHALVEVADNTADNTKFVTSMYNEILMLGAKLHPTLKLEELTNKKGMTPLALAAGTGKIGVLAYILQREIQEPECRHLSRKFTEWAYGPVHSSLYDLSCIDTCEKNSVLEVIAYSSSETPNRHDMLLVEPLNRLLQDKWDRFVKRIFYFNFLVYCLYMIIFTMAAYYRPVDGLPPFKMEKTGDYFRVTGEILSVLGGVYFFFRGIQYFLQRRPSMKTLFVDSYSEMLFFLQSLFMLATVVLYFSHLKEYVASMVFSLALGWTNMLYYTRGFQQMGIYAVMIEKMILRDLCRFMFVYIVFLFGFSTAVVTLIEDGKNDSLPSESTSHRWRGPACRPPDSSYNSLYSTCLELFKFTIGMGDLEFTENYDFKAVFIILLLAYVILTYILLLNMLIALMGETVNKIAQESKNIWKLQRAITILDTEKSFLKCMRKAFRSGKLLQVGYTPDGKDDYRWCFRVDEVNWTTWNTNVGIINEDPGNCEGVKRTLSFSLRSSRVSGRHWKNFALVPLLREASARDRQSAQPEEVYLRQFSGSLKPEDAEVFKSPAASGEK

CC1CCC(C(C)C)C(O)C1 (single isomer, unassigned; (-)) [(−) menthol]
relative stimulation of TRPA1 (SpiceMatrix reactivity) [1]: greatest stimulation of TRPA1

CCCCCc1cc(O)c2c(c1)OC(C)(C)[C@@H]1CCC(C)=C[C@@H]21 [A^9-tetrahydrocannabinol]
activation of TRPA1 [2]: activated

C=CCN=C=S [allyl isothiocyanate]
activation of TRPA1 [2]: specific activators of TRPA1 | relative stimulation of TRPA1 (SpiceMatrix reactivity) [1]: highly reactive | relative stimulation of TRPM5 (SpiceMatrix reactivity) ([3]; FIG. 2, relative to untransfected HEK-293 cells (Parentals)): highly reactive

COc1cc(CNC(=O)CCCC/C=C/C(C)C)ccc1O [capsaicin]
change in relative fluorescent intensity of a voltage-sensitive dye ([4]; FIG. 1C, TRPV1 transfected cells, FMP dye, FLIPR): strong spike in relative fluorescence; also recorded: activates TRPV1

C[N+](C)(C)CCOC(N)=O [carbachol]
change in relative fluorescent intensity of a voltage-sensitive dye ([3]; FIG. 1B, TRPM5 transfected cells, FMP dye, FLIPR): strong spike in relative fluorescence; also recorded: increases TRPM5

O=CC=Cc1ccccc1 [cinnamaldehyde]
activation of TRPA1 [2]: activated; also recorded: specific activators of TRPA1 | change in relative fluorescent intensity of a voltage-sensitive dye ([1]; FIG. 1A, TRPA1 transfected cells, FMP dye, FLIPR): strong spike in relative fluorescence; also recorded: activates TRPA1 | relative stimulation of TRPA1 (SpiceMatrix reactivity) [1]: greatest stimulation of TRPA1

C=CCc1ccc(O)c(OC)c1 [eugenol]
activation of TRPA1 [2]: activate | activation of TRPV1 [5]: activate | activation of TRPM8 [6]: activate | increase in intracellular free Ca2+ [7]: sharp increase

CCCCC[C@H](O)CC(=O)CCc1ccc(O)c(OC)c1 [gingerol]
activation of TRPA1 [2]: activate | activation of TRPV1 [5]: activate | relative stimulation of TRPV1 (SpiceMatrix reactivity) ([4]; FIG. 2A, relative to untransfected HEK-293 cells (Parentals), among 68 compounds): highest degree of stimulation to TRPV1 | activation of TRPM8 [6]: activate | increase in intracellular free Ca2+ [7]: sharp increase

CC1CCC(C(C)C)C(O)C1 (stereo not shown) [menthol]
activation of TRPM8 [6]: activate the TRPM8 | change in relative fluorescent intensity of a voltage-sensitive dye [8]: strong spike in relative fluorescence; also recorded: activates TRPM8

COC(=O)c1ccccc1O [methyl salicylate]
activation of TRPA1 [2]: activate | activation of TRPV1 [5]: activate | activation of TRPM8 [6]: activate | increase in intracellular free Ca2+ [7]: sharp increase
